Results reported in PubChem BioAssay AID1963451 (Molecular Pharmacology Branch, DTP, NCI, 2024).
pIC50: −log10 of the molar value.

System: 521955-158-R6-J3-PDC complex spheroid growth, % test/control
Test: Anticancer human tumor 521955-158-R6-J3-PDC patient-derived pancreatic carcinoma cell line growth inhibition [Asc]
Conditions: for pIC50: curve of first compound; for viability, T/C: stronger effect = lower value
Procedure: Multicellular complex tumor spheroid response to apoptosis pathway targeting inhibitors Alrizomadlin, Pelcitoclax, and Dasminapant in combination with a variety of drugs and investigational agents in selected tumor cell lines
The MDM2 inhibitor alrizomadlin, the Bcl-2/Bcl-xL inhibitor pelcitoclax, and the IAPs inhibitor dasminapant were evaluated both individually and in combination with standard of care and investigational anticancer small molecules within a complex spheroid model of solid tumors. . Complex spheroids include a stromal component modeled by human endothelial cells (HUVEC) and fibroblasts modeled by human mesenchymal stem cells (MSCs). The concentration ranges selected for each drug and investigational agent were based upon clinically achievable concentrations if the clinical Cmax of the agent was known.
Compounds. The drugs and investigational agents: alrizomadlin (APG-115; NSC831270), pelcitoclax (APG-1252; NSC835773), dasminapant (APG-1387;NSC834197), TAK-243 (NSC785004), copanlisib (NSC809693), olaparib (NSC753686), talazoparib (NSC767125), cobimetinib (NSC 768068), eltanexor (KPT-8602, NSC 794443), abemaciclib (NSC 768073), sotorasib (NSC818433), adagrasib (NSC 831453), MRTX-1133 (NSC 836407), Iadademestat (ORY1001, NSC 806812), and RMC-4630 (NSC839698), were obtained from the NCI Developmental Therapeutics Program Chemical Repository. The FDA-approved anticancer drug set is available from the Developmental Therapeutics Program at https://dtp.cancer.gov/organization/dscb/obtaining/available plates.htm. […] The stock solutions were prepared in dimethyl sulfoxide (DMSO, Sigma-Aldrich, St. Louis, MO, cat. D2650) at 800-fold the tested concentration and stored at -70 degrees C prior to their use. All drugs and investigational agents were tested over a range starting from a high concentration at or near the clinical Cmax and decreasing in half-log increments. If the clinical Cmax for an agent had not been determined, the highest concentration tested was 10 microM.
The patient-derived cancer (PDC) cell lines include five colon adenocarcinomas: 186277-243-T-J2-PDC, 616215-338-R-J1-PDC, 439559-082-T-J2-PDC, 463943-066-T-J2-PDC, and 519858-162-T-J1-PDC; three pancreatic carcinomas: 323965-272-R-J2-PDC, 521955-158-R6-J3-PDC, and 521955-158-R2-J5-PDC; two uterine sarcomas: 327498-152-R-J2-PDC and 993429-296-R-J1-PDC; two rhabdomyosarcomas: 755483-174-R-J1-PDC and 772245-204-R-J1-PDC; two soft tissue sarcomas: 126254-015-R-J1-PDC and 494315-158-R-J1-PDC; two malignant fibrous histiocytomas: 317291-083-R-J1-PDC and 596521-263-R-J1-PDC; two breast carcinomas: 171881-019-R-J1-PDC and 885512-296-R-J2-PDC; and one ovarian carcinoma: 6556581-035-R-J-PDC were obtained from the NCI PDMR, (https://pdmr.cancer.gov). The established cell lines HSSY-2 synovial sarcoma (RRID:CVCL 8719), SYO-1 synovial sarcoma (RRID:CVCL_7146), MPNST malignant peripheral neural sheath tumor were obtained from the Sloan Kettering Institute. The following established cell lines were purchased from the American Type Culture Collection (ATCC, Manassas, VA), Sor the received from the NCI repository:, PANC-1 pancreatic carcinoma (CRL-1469, RRID:CVCL_0480), OVCAR-5 ovarian carcinoma (RRID:CVCL_1628), OVCAR-8 ovarian carcinoma (RRID:CVCL_1629), , MCF-7 breast carcinoma (CRL-12584, RRID:CVCL_0031), MDA-MB-231 breast carcinoma (CRL-12532, RRID:CVCL_0062), NCI-H1876 small cell lung carcinoma (CRL-5902, RRID:CVCL_1503), NCI-H510A small cell lung carcinoma (HTB-184, RRID:CVCL_1565), NCI-H1417 (CRL-5869, RRID:CVCL_1469), and NCI-H196 small cell lung carcinoma (CRL-5823, RRID:CVCL_1509). Dr. Peter Houghton (Greehey Children's Cancer Research Institute, University of Texas Health Science Center, San Antonio, TX) provided Rh-18 rhabdomyosarcoma (RRID:CVCL_1659). Pooled donor human umbilical vein endothelial cells (HUVEC, Lonza, cat. CC-2519) and human mesenchymal stem cells (hMSC, Lonza, cat. PT-2501) were purchased from Lonza (Walkersville, MD).
Cell Culture. […]
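Also: spheroids exposed to compounds for 7 days.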
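For viability, T/C in this document: 100% = DMSO vehicle control wells.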

- pIC50 (second compound 0.0316 µM): < 7.00
- pIC50 (second compound 0.1 µM): < 7.00
- pIC50 (second compound 0.316 µM): 8.32
- pIC50 (second compound 1 µM): > 9.50
- pIC50 (second compound 3.16 µM): > 9.50
- pIC50 (second compound 10 µM): > 9.50
SMILES: Cn1ncnc1[C@H]1c2n[nH]c(=O)c3cc(F)cc(c23)N[C@@H]1c1ccc(F)cc1 + Cc1c(S(C)(=O)=O)c(-c2cc(F)cc(N3CCN(c4ccc(NS(=O)(=O)c5ccc(NC(CCN6CCC(C(=O)OCCCP(=O)(O)O)CC6)CSc6ccccc6)c(S(=O)(=O)C(F)(F)F)c5)cc4)CC3)c2)c(-c2ccc(Cl)cc2)n1C(C)C
- viability, T/C (second compound 0.0316 µM, first compound 0.000316 µM): 84.8%
- viability, T/C (second compound 0.0316 µM, first compound 0.001 µM): 92.7%
- viability, T/C (second compound 0.0316 µM, first compound 0.00316 µM): 70.5%
- viability, T/C (second compound 0.0316 µM, first compound 0.01 µM): 82%
- viability, T/C (second compound 0.0316 µM, first compound 0.0316 µM): 77%
- viability, T/C (second compound 0.0316 µM, first compound 0.1 µM): 68.9%
- viability, T/C (second compound 0.1 µM, first compound 0.000316 µM): 86.3%
- viability, T/C (second compound 0.1 µM, first compound 0.001 µM): 75.1%
- viability, T/C (second compound 0.1 µM, first compound 0.00316 µM): 75.3%
- viability, T/C (second compound 0.1 µM, first compound 0.01 µM): 82.3%
- viability, T/C (second compound 0.1 µM, first compound 0.0316 µM): 61%
- viability, T/C (second compound 0.1 µM, first compound 0.1 µM): 67.6%
- viability, T/C (second compound 0.316 µM, first compound 0.000316 µM): 53.4%
- viability, T/C (second compound 0.316 µM, first compound 0.001 µM): 54.2%
- viability, T/C (second compound 0.316 µM, first compound 0.00316 µM): 52.5%
- viability, T/C (second compound 0.316 µM, first compound 0.01 µM): 44.4%
- viability, T/C (second compound 0.316 µM, first compound 0.0316 µM): 40.8%
- viability, T/C (second compound 0.316 µM, first compound 0.1 µM): 51.5%
- viability, T/C (second compound 1 µM, first compound 0.000316 µM): 35.1%
- viability, T/C (second compound 1 µM, first compound 0.001 µM): 32.7%
- viability, T/C (second compound 1 µM, first compound 0.00316 µM): 41.4%
- viability, T/C (second compound 1 µM, first compound 0.01 µM): 29.8%
- viability, T/C (second compound 1 µM, first compound 0.0316 µM): 35%
- viability, T/C (second compound 1 µM, first compound 0.1 µM): 40.9%
- viability, T/C (second compound 3.16 µM, first compound 0.000316 µM): 23%
- viability, T/C (second compound 3.16 µM, first compound 0.001 µM): 24.3%
- viability, T/C (second compound 3.16 µM, first compound 0.00316 µM): 21.1%
- viability, T/C (second compound 3.16 µM, first compound 0.01 µM): 19.9%
- viability, T/C (second compound 3.16 µM, first compound 0.0316 µM): 20.8%
- viability, T/C (second compound 3.16 µM, first compound 0.1 µM): 16.4%
- viability, T/C (second compound 10 µM, first compound 0.000316 µM): 14.8%
- viability, T/C (second compound 10 µM, first compound 0.001 µM): 17.9%
- viability, T/C (second compound 10 µM, first compound 0.00316 µM): 26.6%
- viability, T/C (second compound 10 µM, first compound 0.01 µM): 15.5%
- viability, T/C (second compound 10 µM, first compound 0.0316 µM): 15%
- viability, T/C (second compound 10 µM, first compound 0.1 µM): 11%
